Target: T1, DPP-IV (Homo sapiens, UniProt P27487)
T1 construct: purchased R&D Systems GmbH, Germany
Test: Assay for determining DP-IV inhibition (fluorometric, Gly-Pro-AMC substrate)
Assay type: biochemical
Settings: Inhibition of DPP-IV, K(i) calculated from IC(50) with IC(50)=K(i)(1+[S]/Km), pH 8.0
Description: The inhibitory activity of compounds against DPP-IV can be determined by in vitro assay systems, which are themselves well established in the art. The assay results given in Table 5 were obtained according to the following method, employing a modified version of the assay described by Leiting et al., in an article entitled “Catalytic properties and inhibition of proline-specific dipeptidyl peptidases II, IV and VII” in Biochem. J. Vol. 371, pages 525-532 (2003):
DPP-IV activity was determined fluorometrically with Gly-Pro-AMC (where AMC stands for 7-amido-4-methylcoumarin, Bachem AG, Switzerland) as substrate. The reaction mixture contained 10 μl of 1 ng/μl DPP-IV (R&D Systems GmbH, Germany) and 80 μl of 25 mM Tris/HCl buffer, pH 8.0. Compounds were supplied as DMSO stock solutions and diluted in assay buffer to a maximal DMSO concentration of 1% in the assay. Prior to start of the reaction, the mixture was incubated for 30 min at room temperature. The reaction was started by addition of 10 μl of 100 μM substrate solution.
The fluorescence intensity was measured at excitation and emission wavelengths of 355 and 460 nm, respectively, in a FluoStar Galaxy Multiwell Plate (BMG Labtech, Germany). Fluorescence was determined 3 and 4 minutes after start of reaction and increase in fluorescence was used for determination of enzymatic activity. IC(50) values of tested compounds were determined via plotting enzymatic activity versus concentration of test compound and determining the concentration of test compound which yields a 50% inhibition of enzymatic activity.
K(i) values were calculated using the Michaelis-Menten equation for competitive inhibition: IC(50)=K(i)(1+[S]/Km)

T1 sequence (P27487 whole entry): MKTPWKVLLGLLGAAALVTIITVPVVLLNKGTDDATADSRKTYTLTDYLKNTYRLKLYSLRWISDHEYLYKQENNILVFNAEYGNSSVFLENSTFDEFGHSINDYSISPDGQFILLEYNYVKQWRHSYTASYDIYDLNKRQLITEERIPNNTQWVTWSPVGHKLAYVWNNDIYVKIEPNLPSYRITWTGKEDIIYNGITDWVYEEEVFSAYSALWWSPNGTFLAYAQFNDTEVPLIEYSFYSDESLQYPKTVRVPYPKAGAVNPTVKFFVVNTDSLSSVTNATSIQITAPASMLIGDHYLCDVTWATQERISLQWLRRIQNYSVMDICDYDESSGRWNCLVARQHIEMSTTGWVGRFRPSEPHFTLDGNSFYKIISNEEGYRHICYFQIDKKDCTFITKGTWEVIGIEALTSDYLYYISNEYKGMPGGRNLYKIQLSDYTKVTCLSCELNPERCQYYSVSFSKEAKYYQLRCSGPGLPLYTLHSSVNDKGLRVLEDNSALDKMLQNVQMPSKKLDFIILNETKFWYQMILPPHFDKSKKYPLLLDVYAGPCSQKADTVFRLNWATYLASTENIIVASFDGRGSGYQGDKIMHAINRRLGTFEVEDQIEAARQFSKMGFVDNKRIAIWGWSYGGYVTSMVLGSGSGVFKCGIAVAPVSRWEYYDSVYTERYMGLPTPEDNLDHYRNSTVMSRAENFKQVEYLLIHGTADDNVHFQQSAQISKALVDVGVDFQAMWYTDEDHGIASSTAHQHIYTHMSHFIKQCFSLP

| Structure (SMILES) | Ki |
| --- | --- |
| N#C[C@@H]1CCCN1C(=O)CNCCNC1c2ccccc2CCc2ccccc21 [Example 1] | 51 to 500 nM |
| N#C[C@@H]1CCCN1C(=O)CNC1c2ccccc2CCc2ccccc21 [Example 2] | 500 to 30000 nM |
| CC(C)(CNC1c2ccccc2CCc2ccccc21)NCC(=O)N1CCC[C@H]1C#N [Example 3] | 500 to 30000 nM |
| N#C[C@@H]1CCCN1C(=O)CNCC1c2ccccc2CCc2ccccc21 [Example 4] | 500 to 30000 nM |
| N#C[C@@H]1CCCN1C(=O)CNCC(=O)N1c2ccccc2CCc2ccccc21 [Example 5] | 500 to 30000 nM |
| N#C[C@@H]1CCCN1C(=O)CNCCN1c2ccccc2C=Cc2ccccc21 [Example 7] | 51 to 500 nM |
| N#C[C@@H]1CCCN1C(=O)CNCCCN1c2ccccc2CCc2ccccc21 [Example 9] | 51 to 500 nM |
| N#C[C@@H]1CCCN1C(=O)CNCCC1(O)c2ccccc2CCc2ccccc21 [Example 10] | 51 to 500 nM |
| N#C[C@@H]1CCCN1C(=O)CNCC=C1c2ccccc2CCc2ccccc21 [Example 11] | 51 to 500 nM |
| N#C[C@@H]1CCCN1C(=O)CNC1CCN(C2c3ccccc3CCc3ccccc32)CC1 [Example 12] | 51 to 500 nM |
| N#C[C@@H]1CCCN1C(=O)CNC1CCN(C2c3ccccc3CCc3ccccc32)C1 (stereo partly drawn) [Example 13] | 51 to 500 nM |
| N#C[C@@H]1CCCN1C(=O)CNC1CN(C2c3ccccc3CCc3ccccc32)C1 [Example 14] | 500 to 30000 nM |
| N#C[C@@H]1CCCN1C(=O)CNC1c2ccc(Cl)cc2CCc2cccnc21 (stereo partly drawn) [Example 15] | 500 to 30000 nM |
| N#C[C@@H]1CCCN1C(=O)CNCCC1(C#N)c2ccccc2CCc2ccccc21 [Example 16] | 51 to 500 nM |
| N#C[C@@H]1CCCN1C(=O)CNCCC1(C(N)=O)c2ccccc2CCc2ccccc21 [Example 17] | 6 to 50 nM |
| C[C@H](CC1(C(N)=O)c2ccccc2CCc2ccccc21)NCC(=O)N1CCC[C@H]1C#N [Example 19] | 6 to 50 nM |
| N#C[C@@H]1CCCN1C(=O)CNCCNC1c2ccc(Cl)cc2CCc2cccnc21 (stereo partly drawn) [Example 20] | 51 to 500 nM |
| N#C[C@@H]1CCCN1C(=O)CNCCNC1c2ccccc2CCc2cccnc21 (stereo partly drawn) [Example 21] | 51 to 500 nM |
| N#C[C@@H]1CCCN1C(=O)CNCCC1(c2nn[nH]n2)c2ccccc2CCc2ccccc21 [Example 23] | 6 to 50 nM |
| N#C[C@@H]1CCCN1C(=O)CNCCC1(c2nn[nH]n2)c2ccc(Cl)cc2CCc2cc(Cl)ccc21 [Example 25] | 6 to 50 nM |

| Structure (SMILES) | Ki |
| --- | --- |
| C[C@@H](CN1C[C@@H]2C[C@H]1C(=O)N2Cc1cccc(F)c1)NCC(=O)N1CCC[C@H]1C#N [Example 26] | 51 to 500 nM |
| CC(C)NC(=O)c1ccc2c(c1)CCc1cc(C(=O)NC(C)C)ccc1C2(C[C@H](C)NCC(=O)N1CCC[C@H]1C#N)c1nn[nH]n1 [Example 31] | 6 to 50 nM |
| CN(C)C(=O)c1ccc2c(c1)CCc1cc(C(=O)N(C)C)ccc1C2(CCNCC(=O)N1CCC[C@H]1C#N)c1nn[nH]n1 [Example 36] | 6 to 50 nM |
| C[C@@H](CC1(C(N)=O)c2ccc(C(=O)N(C)C)cc2CCc2cc(C(=O)N(C)C)ccc21)NCC(=O)N1CCC[C@H]1C#N [Example 39] | 6 to 50 nM |
| C[C@@H](CC1(c2noc(C(F)(F)F)n2)c2ccc(C(=O)N(C)C)cc2CCc2cc(C(=O)N(C)C)ccc21)NCC(=O)N1CCC[C@H]1C#N [Example 40] | 500 to 30000 nM |
| N#C[C@@H]1CCCN1C(=O)CNCCC1(c2nn[nH]n2)c2cc(F)ccc2CCc2ccc(C(N)=O)cc21 (stereo partly drawn) [Example 45] | 6 to 50 nM |
| CN1C(=O)c2ccccc2C(CCNCC(=O)N2CCC[C@H]2C#N)(c2nn[nH]n2)c2ccccc21 (stereo partly drawn) [Example 46] | 500 to 30000 nM |
| C[C@@H](c1ccc(F)cc1)N1C(=O)[C@@H]2CC1CN2C[C@H](N)C(=O)N1CCSC1 [Example 50] | 6 to 50 nM |
| C[C@@H](c1ccc(F)cc1)N1C(=O)[C@@H]2CC1CN2C[C@H](N)C(=O)N1[C@H](C#N)C[C@@H]2C[C@@H]21 [Example 58] | < 6 nM |
| CC(C)(c1ccc(F)cc1)N1C(=O)[C@@H]2CC1CN2C[C@H](N)C(=O)N1CCC[C@H]1C#N [Example 59] | < 6 nM |
| N#C[C@@H]1CCCN1C(=O)[C@@H](N)CN1CC2C[C@H]1C(=O)N2Cc1cccc(C(N)=O)c1 [Example 60] | < 6 nM |
| N#C[C@@H]1CCCN1C(=O)[C@@H](N)CN1CC2C[C@H]1C(=O)N2Cc1ccc(C(N)=O)cc1 [Example 61] | < 6 nM |
| CC(C)(c1ccc(F)cc1)N1C(=O)[C@@H]2CC1CN2C[C@H](N)C(=O)N1[C@H](C#N)C[C@@H]2C[C@@H]21 [Example 62] | < 6 nM |
| N#C[C@@H]1CCCN1C(=O)[C@@H]1C[C@H](N2C[C@@H]3C[C@H]2C(=O)N3Cc2cccc(F)c2)CN1 [Example 63] | < 6 nM |
| N#C[C@@H]1C[C@@H]2C[C@@H]2N1C(=O)[C@@H](N)CN1C[C@@H]2C[C@H]1C(=O)N2Cc1cccc(F)c1 [Example 64] | < 6 nM |
| N#C[C@@H]1CCCN1C(=O)[C@@H](N)CN1C(=O)[C@@H]2C[C@H]1CN2S(=O)(=O)c1cccc(F)c1 [Example 65] | 6 to 50 nM |
| N#C[C@@H]1CCCN1C(=O)[C@@H](N)CN1C(=O)[C@@H]2C[C@H]1CN2S(=O)(=O)c1cccs1 [Example 66] | 6 to 50 nM |
| N#C[C@@H]1CCCN1C(=O)[C@@H](N)CN1C(=O)[C@@H]2C[C@H]1CN2S(=O)(=O)c1ccsc1 [Example 67] | < 6 nM |
| COC(=O)c1sccc1S(=O)(=O)N1C[C@@H]2C[C@H]1C(=O)N2C[C@H](N)C(=O)N1CCC[C@H]1C#N [Example 68] | 6 to 50 nM |
| N#C[C@@H]1CCCN1C(=O)[C@@H](N)CN1C(=O)[C@@H]2C[C@H]1CN2C(=O)c1cccs1 [Example 69] | 6 to 50 nM |

Continued, values first:

| Ki | Structure (SMILES) |
| --- | --- |
| < 6 nM | C[C@@H](CC1(C(N)=O)c2ccccc2CCc2ccccc21)NCC(=O)N1CCC[C@H]1C#N [Example 18] |
| < 6 nM | N#C[C@@H]1CCCN1C(=O)CNCCC1(C(N)=O)c2ccc(C(N)=O)cc2CCc2ccc(F)cc21 (stereo partly drawn) [Example 22] |
| < 6 nM | N#C[C@@H]1CCCN1C(=O)CNCCC1(c2nn[nH]n2)c2ccc(F)cc2CCc2ccc(F)cc21 (stereo partly drawn) [Example 24] |
| < 6 nM | C[C@@H](CC1(c2nn[nH]n2)c2ccc(C(N)=O)cc2CCc2cc(C(N)=O)ccc21)NCC(=O)N1CCC[C@H]1C#N [Example 27] |
| < 6 nM | CNC(=O)c1ccc2c(c1)CCc1cc(C(=O)NC)ccc1C2(C[C@H](C)NCC(=O)N1CCC[C@H]1C#N)c1nn[nH]n1 [Example 28] |
| < 6 nM | C[C@@H](CC1(c2nn[nH]n2)c2ccc(C(=O)N(C)C)cc2CCc2cc(C(=O)N(C)C)ccc21)NCC(=O)N1CCC[C@H]1C#N [Example 29] |
| < 6 nM | CCNC(=O)c1ccc2c(c1)CCc1cc(C(=O)NCC)ccc1C2(C[C@H](C)NCC(=O)N1CCC[C@H]1C#N)c1nn[nH]n1 [Example 30] |
| < 6 nM | C[C@@H](CC1(c2nn[nH]n2)c2ccc(C(=O)N3CCC3)cc2CCc2cc(C(=O)N3CCC3)ccc21)NCC(=O)N1CCC[C@H]1C#N [Example 32] |
| < 6 nM | C[C@@H](CC1(c2nn[nH]n2)c2ccc(C(=O)N3CCOCC3)cc2CCc2cc(C(=O)N3CCOCC3)ccc21)NCC(=O)N1CCC[C@H]1C#N [Example 33] |
| < 6 nM | N#C[C@@H]1CCCN1C(=O)CNCCC1(c2nn[nH]n2)c2ccc(C(N)=O)cc2CCc2cc(C(N)=O)ccc21 [Example 34] |
| < 6 nM | CNC(=O)c1ccc2c(c1)CCc1cc(C(=O)NC)ccc1C2(CCNCC(=O)N1CCC[C@H]1C#N)c1nn[nH]n1 [Example 35] |
| < 6 nM | COC(=O)c1ccc2c(c1)CCc1cc(C(=O)OC)ccc1C2(C[C@H](C)NCC(=O)N1CCC[C@H]1C#N)c1nn[nH]n1 [Example 43] |
| < 6 nM | C[C@@H](CC1(c2nn[nH]n2)c2ccc(C(=O)O)cc2CCc2cc(C(=O)O)ccc21)NCC(=O)N1CCC[C@H]1C#N [Example 44] |
| < 6 nM | N#C[C@@H]1C[C@@H]2C[C@@H]2N1C(=O)CNCCC1(c2nn[nH]n2)c2ccc(C(N)=O)cc2CCc2cc(C(N)=O)ccc21 [Example 47] |
| < 6 nM | N#C[C@@H]1CCCN1C(=O)[C@@H](N)CN1C[C@@H]2C[C@H]1C(=O)N2Cc1cccc(F)c1 [Example 48] |
| < 6 nM | N#C[C@@H]1CCCN1C(=O)[C@@H](N)CN1C[C@@H]2C[C@H]1C(=O)N2Cc1c(Cl)cccc1Cl [Example 49] |
| < 6 nM | N#C[C@@H]1CCCN1C(=O)[C@@H](N)CN1CC2C[C@H]1C(=O)N2Cc1cc(F)cc(F)c1 [Example 51] |
| < 6 nM | N#C[C@@H]1C[C@@H]2C[C@@H]2N1C(=O)[C@@H](N)CN1CC2C[C@H]1C(=O)N2Cc1cc(F)cc(F)c1 [Example 52] |
| < 6 nM | N#Cc1cccc(CN2C(=O)[C@@H]3CC2CN3C[C@H](N)C(=O)N2CCC[C@H]2C#N)c1 [Example 53] |
| < 6 nM | N#Cc1cccc(CN2C(=O)[C@@H]3CC2CN3C[C@H](N)C(=O)N2[C@H](C#N)C[C@@H]3C[C@@H]32)c1 [Example 54] |
| < 6 nM | N#Cc1ccc(CN2C(=O)[C@@H]3CC2CN3C[C@H](N)C(=O)N2CCC[C@H]2C#N)cc1 [Example 55] |
| < 6 nM | C[C@H](c1ccc(F)cc1)N1C(=O)[C@@H]2CC1CN2C[C@H](N)C(=O)N1CCC[C@H]1C#N [Example 56] |
| < 6 nM | C[C@@H](c1ccc(F)cc1)N1C(=O)[C@@H]2CC1CN2C[C@H](N)C(=O)N1CCC[C@H]1C#N [Example 57] |
